This note sets out measurements from PubChem BioAssay (NCI).

Common to all, as to assay: DTP human tumour cell line panel, 48 h
Experiment [1] concerns SK-OV-3 ovarian.
The subject of experiment [2] is 786-0 renal.
Experiment [3] deals with SNB-19 CNS.
In experiment [4] the test system is U251 CNS.
In experiment [5] the test system is SR leukemia.
Experiment [6] relates to COLO 205 colon.
In experiment [7] the test system is MCF7 breast.
The subject of experiment [8] is M14 melanoma.
Experiment [9] has as its system SW-620 colon.
The test system of experiment [10] is MDA-MB-435.

“And” between values parts separate entries of the source, which are not always exact repeats. Identical values can stand only once.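 Cells were grown in 96-well plates and exposed to each compound for 48 hours at five concentrations; endpoints were interpolated linearly between bracketing concentrations, or set to the highest concentration if not reached. At the GI50, growth is halved. TGI marks complete inhibition of growth.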

The GI50 is the concentration giving 50% growth inhibition. A word on the TGI: it is the concentration at which net growth stops. High values mean lower sensitivity of the cells, low ones greater sensitivity of the cells. In the case of `CC(C)C[C@H](NC(=O)[C@H](CCc1ccccc1)NC(=O)CN1CCOCC1)C(=O)N[C@@H](Cc1ccccc1)C(=O)N[C@@H](CC(C)C)C(=O)[C@@]1(C)CO1`, the GI50 was 0.0253 µM in experiment [1]; 0.0311 µM in [2]; under 0.0164 µM in [3]; under 0.0127 µM in experiment [4]; 0.0149 µM in experiment [5]; under 0.0165 µM in [6]. The GI50 in experiment [7] was under 0.01 µM; in [8], under 0.0131 µM; in experiment [9] it was under 0.01 µM; in experiment [10] it was under 0.01 µM. The TGI in experiment [1] was 0.282 µM; in experiment [2], 0.332 µM; in experiment [3], over 100 µM; in experiment [4] it was 0.0632 µM; in experiment [5], over 100 µM; in experiment [6] it was 0.172 µM. In addition, the TGI was found to be 5.41 µM in experiment [7], 0.0446 µM in experiment [8] and 0.0173 µM in experiment [10].
Take `Nc1[nH]c(=O)ncc1F`: the TGI in [1], in experiment [2], in experiment [3], in experiment [4], in [5] and in experiment [6] was over 100 µM each time. Further, the TGI in experiment [7], in experiment [8], in experiment [9] and in [10] was over 100 µM throughout.
Regarding `CN1/C(=C\C(I)C(I)C2=[N+](C)c3ccccc3C2(C)C)C(C)(C)c2ccccc21` (centres undefined), the GI50 in [1] is 0.247 µM; in [2] it was 0.904 µM; in [3], 0.291 µM; in [4] it was 0.262 µM; in [5], 0.151 µM; in experiment [6], 0.21 µM. In addition, the GI50 is 0.485 µM in experiment [7], 0.367 µM in experiment [8], 0.333 µM in experiment [9] and 0.26 µM in experiment [10]. Further, the TGI in [1] stood at 1.6 µM; in experiment [2], 16.2 µM; in [3], 40.3 µM; in experiment [4], 15.7 µM; in experiment [5], 13.8 µM; in experiment [6], 0.733 µM. For the same compound, the TGI in experiment [7] came out at 19.2 µM; in [8], 13.2 µM; in experiment [9], 17 µM; in experiment [10], 11.6 µM.
For `CCSc1oc(-c2ccccc2)nc1[P+](c1ccccc1)(c1ccccc1)c1ccccc1`, the GI50 was 0.275 µM in [1]; 0.376 µM in experiment [2]; 0.293 µM in experiment [3]; 0.163 µM in [4]; 0.377 µM in experiment [5]; 0.186 µM in experiment [6]. Also, the GI50 was 0.246 µM in experiment [7], 0.334 µM in experiment [8], 0.305 µM in [9] and 0.308 µM in [10]. Moreover, the TGI is 0.977 µM in [1]; 2.11 µM in experiment [2]; 3.88 µM in experiment [3]; 4.61 µM in experiment [4]; 24.2 µM in [5]; 0.42 µM in experiment [6]. For the same compound, the TGI in [7] amounted to 1.28 µM; in [8] it was 1.84 µM; in experiment [9], 7.32 µM; in experiment [10] it was 1.12 µM.
With `CCCS(=O)(=O)Nc1ccc(F)c(C(=O)c2c[nH]c3ncc(-c4ccc(Cl)cc4)cc23)c1F`, the GI50 was 4.19 µM and 3.38 µM in [1]; 4.13 µM and 5.43 µM in [2]; 6.56 µM and > 10 µM in experiment [3]; 3.37 µM and 4.02 µM in experiment [4]; 2.1 µM and 2.92 µM in [5]; 0.0487 µM and 0.0423 µM in experiment [6]. The GI50 was 5.24 µM and 8.84 µM in experiment [7]; 0.0403 µM and 0.0413 µM in experiment [8]; 10 µM and > 8.98 µM in [9]; 0.107 µM and 0.153 µM in experiment [10]. Further, the TGI in [1] is 19 µM and > 10 µM; in experiment [2] it was 26.2 µM and > 10 µM; in experiment [3], 29.6 µM and > 10 µM; in experiment [4], 15.9 µM and > 10 µM; in experiment [5], 13.9 µM and > 10 µM; in experiment [6], 11.2 µM and > 5.32 µM. The TGI in experiment [7] is 20.9 µM and > 10 µM; in [8], 1.34 µM and 2.21 µM; in experiment [9], 27.3 µM and > 10 µM; in experiment [10], 8.86 µM and > 10 µM.
As for `COc1cc(C)c(C(=O)O[C@H]2[C@H](O[C@H]3[C@@H](O)COC(O[C@H]4C[C@H]5[C@@H]6CC=C7C[C@@H](O)CC[C@]7(C)[C@H]6CC[C@]5(C)[C@H]4[C@H](C)C(=O)CCC(C)C)[C@@H]3OC(C)=O)OC[C@@H](O)[C@@H]2O)c(C)c1` (some centres undefined), the GI50 is 0.141 µM in [1]; under 0.01 µM in experiment [2]; under 0.01 µM in experiment [3]; under 0.01 µM in experiment [4]; under 0.01 µM in experiment [5]; 0.0307 µM in experiment [6]. The GI50 in [7], in [8], in [9] and in [10] was under 0.01 µM each time. The TGI was 2.73 µM in experiment [1]; 2.55 µM in experiment [2]; 4.93 µM in experiment [3]; 12.8 µM in [4]; 21.1 µM in experiment [5]; 0.382 µM in experiment [6]. Further, the TGI in experiment [7] was 7.62 µM; in [8], under 0.01 µM; in [9], 0.183 µM; in [10], 0.13 µM.
On to `COc1ccc(/C=C/c2c(C(=O)/C=C/c3ccc(Cl)cc3)c(C)nc3ccccc23)cc1`, for which the GI50 in experiment [1] is 2.82 µM; in experiment [2] it was 1.82 µM; in [3], 1.74 µM; in experiment [4] it was 1.75 µM; in experiment [5], 1.37 µM; in [6], 2.13 µM. The GI50 in [7] is 1.29 µM; in experiment [8], 1.83 µM; in [9], 1.85 µM; in experiment [10], 2.12 µM. Also, the TGI is 11.4 µM in experiment [1]; 3.4 µM in [2]; 3.29 µM in [3]; 3.55 µM in [4]; over 100 µM in experiment [5]; 5.29 µM in experiment [6]. The TGI came to 4.11 µM in experiment [7], 4.15 µM in [8], 6.02 µM in experiment [9] and 4.67 µM in experiment [10].
For `CN(C)C[C@H]1CC[C@@H](CN(C)C)C1=O`, the TGI in [1] is over 50 µM; in [2], 12.8 µM; in [3], over 50 µM; in [4], over 40.4 µM; in [5], over 50 µM; in [6] it was 11.3 µM. Moreover, the TGI came out at 6.19 µM in experiment [7], 16.7 µM in [8], 5.55 µM in [9] and 19.6 µM in experiment [10]. Moreover, in [6], the GI50 is 0.759 µM.
On to `Cc1ccc2nc3c(C)c(Cl)c(=O)cc-3sc2c1`, for which the TGI in experiment [1] was over 100 µM; in experiment [2] it was over 100 µM; in [3], over 100 µM; in experiment [4] it was over 91.5 µM; in experiment [5], over 31.6 µM; in [6], over 80.8 µM. Moreover, the TGI was 61.8 µM in experiment [7], 36.4 µM in [8], over 100 µM in experiment [9] and 39.7 µM in experiment [10].
Take `COc1ccc(N2CCN(C(=O)c3ccccc3Nc3ccnc(C(F)(F)F)c3)CC2)cc1`: the GI50 in [1] was over 100 µM; in [2], over 100 µM; in experiment [3], 78.3 µM; in [4], 83.9 µM; in experiment [5] it was 10.8 µM; in experiment [6] it was 63 µM. Moreover, the GI50 in [7] is 36.4 µM; in experiment [8], 87.3 µM; in experiment [9] it was over 100 µM; in experiment [10] it was 38 µM. Besides, the TGI in experiment [1], in experiment [2], in experiment [3], in [4], in experiment [5] and in experiment [6] was over 100 µM each time. For the same compound, the TGI in experiment [7], in experiment [8], in experiment [9] and in [10] was over 100 µM in each case.
Consider `Cc1ccc(Cl)cc1Nc1nc(C(F)(F)F)ccc1C(=O)Nc1cccc(C(F)(F)F)c1`, for which the GI50 in [1] is 1.74 µM; in experiment [2], 3.16 µM; in experiment [3], 3.59 µM; in [4], 3.68 µM; in [5], 3.41 µM; in [6], 1.72 µM. In addition, the GI50 in [7] was 2.49 µM; in experiment [8] it was 2.99 µM; in [9], 4.55 µM; in experiment [10], 3.61 µM. In addition, the TGI came to 5.47 µM in experiment [1]; 11.8 µM in experiment [2]; 14.6 µM in experiment [3]; 14.5 µM in [4]; 30.3 µM in experiment [5]; 3.36 µM in [6]. Moreover, the TGI in experiment [7] came to 9.5 µM; in experiment [8] it was 10.3 µM; in [9] it was 19.1 µM; in [10] it was 13.9 µM.
`CC[C@@]1(O)C(=O)NCc2c1cc1n(c2=O)Cc2cc3ccccc3nc2-1`: the GI50 is 8.68 µM in experiment [1]; 1.63 µM in [2]; 1.92 µM in [3]; 2.39 µM in [4]; 0.123 µM in experiment [5]; 39.2 µM in experiment [6]. Besides, the GI50 in experiment [7] was 0.823 µM; in [8] it was 1.49 µM; in experiment [9], 3.39 µM; in [10], 10.9 µM. The TGI in experiment [1] was over 100 µM; in experiment [2] it was 9.93 µM; in experiment [3], over 100 µM; in [4], over 42.8 µM; in [5] it was 0.503 µM; in [6] it was over 100 µM. In addition, the TGI is 15.1 µM in [8], over 100 µM in [9] and over 100 µM in experiment [10].
